Key:
Assay in all cases: Growth inhibition assay for NHL lines
Type in all cases: cell-based
HL-60 = conditions: HL-60, Leukemia M-AML, 96 hours, n ≧ 3
Method: (§1) Growth Inhibition Assay for HCC and NHL Lines. The seeding density for each cell line was optimized to ensure assay linearity in 384-well plates.
(§2) Compound 1 was dissolved in dimethyl sulfoxide (DMSO) to prepare a 10 mM stock solution. A serial titration was performed to produce a working concentration range of […] to 10 mM. Aliquots to produce final concentrations of 1.5 nM to 10 μM were spotted via an acoustic dispenser (EDC ATS-100) into an empty 384-well plate. Compound 1 was spotted in a 10-point serial dilution fashion (3-fold dilution) in duplicate within the plate. The DMSO concentration was kept constant for a final assay concentration of 0.1% DMSO. Plates were replicated for use with different cell lines and testing periods. After compound plate replication, all plates were sealed (Agilent ThermoLoc) and stored at −20° C. for up to 1 month. […] When ready for testing, plates were removed from the freezer, thawed, and unsealed just prior to the addition of the test cells. Prior to testing, cells were grown and expanded in culture flasks to provide sufficient amounts of starting material. Cells were then diluted to the appropriate densities and added directly to the compound-spotted 384-well plates. Cells were allowed to grow for 96 hours at 37° C./5% CO2. At the time when compound was added (t0), initial cell number was assessed via a viability assay (Cell Titer-Glo) by quantifying the level of luminescence generated by ATP present in viable cells. After 96 hours, cell viability of compound-treated cells was assessed via Cell Titer-Glo and luminescence measurement. Cell lines were assayed for growth inhibition by Compound 1 in at least 3 independent tests. A control cell line (the lung tumor cell line, A549) was included in each of the assays. The compound response against this control cell line was monitored closely to enable comparison of the data generated through the assay period. All data were normalized and presented as a percentage of the DMSO-treated cells. Results were then expressed as a GI50 value. The GI50 value corrects for the cell count at time zero. In addition, the IC50 value of Compound 1 for each cell line was calculated.

WSU-FSCCL = conditions: NHL FL, 96 hours, n ≧ 3
Method: as §1, §2

REC-1 = conditions: REC-1, NHL MCL, 96 hours, n ≧ 3
Method: as §1, §2

DOHH-2 = conditions: DOHH-2, NHL FL, 96 hours, n ≧ 3
Method: as §1, §2

SU-DHL-5 = conditions: SU-DHL-5, NHL DLBCL, 96 hours, n ≧ 3
Method: as §1, §2

KG-1 = conditions: KG-1, Leukemia M-AML, 96 hours, n ≧ 3
Method: as §1, §2

RIVA = conditions: NHL DLBCL, 96 hours, n ≧ 3
Method: as §1, §2

NU-DHL-1 = conditions: NU-DHL-1, NHL DLBCL, 96 hours, n ≧ 3
Method: as §1, §2

Granta-519 = conditions: Granta-519, NHL MCL, 96 hours, n ≧ 3
Method: as §1, §2

OCI-LY-19 = conditions: OCI-LY-19, NHL DLBCL, 96 hours, n ≧ 3
Method: as §1, §2

OCI-LY-3 = conditions: OCI-LY-3, NHL DLBCL, 96 hours, n ≧ 3
Method: as §1, §2

Toledo = conditions: NHL DLBCL, 96 hours, n ≧ 3
Method: as §1, §2

OCI-LY-10 = conditions: OCI-LY-10, NHL DLBCL, 96 hours, n ≧ 3
Method: as §1, §2

Farage = conditions: NHL DLBCL, 96 hours, n ≧ 3
Method: as §1, §2

THP-1 = conditions: THP-1, Leukemia M-AML, 96 hours, n ≧ 3
Method: as §1, §2

WSU-DLCL2 = conditions: WSU-DLCL2, NHL DLBCL, 96 hours, n ≧ 3
Method: as §1, §2

SU-DHL-16 = conditions: SU-DHL-16, NHL DLBCL, 96 hours, n ≧ 3
Method: as §1, §2

SU-DHL-10 = conditions: SU-DHL-10, NHL DLBCL, 96 hours, n ≧ 3
Method: as §1, §2

SU-DHL-4 = conditions: SU-DHL-4, NHL DLBCL, 96 hours, n ≧ 3
Method: as §1, §2

MOLM-13 = conditions: MOLM-13, Leukemia M-AML, 96 hours, n ≧ 3
Method: as §1, §2

JVM-2 = conditions: JVM-2, NHL MCL, 96 hours, n ≧ 3
Method: as §1, §2

RC-K8 = conditions: RC-K8, NHL DLBCL, 96 hours, n ≧ 3
Method: as §1, §2

U-2932 = conditions: U-2932, NHL DLBCL, 96 hours, n ≧ 3
Method: as §1, §2

OCI-LY-7 = conditions: OCI-LY-7, NHL DLBCL, 96 hours, n ≧ 3
Method: as §1, §2

`CO[C@H]1CC[C@H](N2C(=O)CNc3ncc(-c4ccc(C(C)(C)O)nc4)nc32)CC1` [Compound 1, 7-(6-(2-hydroxypropan-2-yl)pyridin-3-yl)-1-((1r,4r)-4-methoxycyclohexyl)-3,4-dihydropyrazino-[2,3-b]pyrazin-2(1H)-one] showed a GI50 (HL-60) of 240 ± 60 nM, an IC50 (HL-60) of 380 ± 130 nM and a GI50 (WSU-FSCCL) of 160 ± 40 nM. The IC50 (WSU-FSCCL) was 190 ± 40 nM, the GI50 (REC-1) was 200 ± 40 nM and the IC50 (REC-1) was 260 ± 50 nM. It also gave a GI50 (DOHH-2) of 130 ± 20 nM, an IC50 (DOHH-2) of 160 ± 30 nM and a GI50 (SU-DHL-5) of 230 ± 130 nM. The IC50 (SU-DHL-5) was 260 ± 140 nM, the GI50 (KG-1) was 60 ± 20 nM and the IC50 (KG-1) was 370 ± 40 nM. It also gave a GI50 (RIVA) of 20 ± 10 nM, an IC50 (RIVA) of 100 ± 50 nM and a GI50 (NU-DHL-1) of 80 ± 30 nM. The IC50 (NU-DHL-1) was 110 ± 50 nM, the GI50 (Granta-519) was 380 ± 80 nM and the IC50 (Granta-519) was 960 ± 100 nM. For the same compound, the GI50 (OCI-LY-19) was 220 ± 60 nM, the IC50 (OCI-LY-19) was 350 ± 80 nM and the GI50 (OCI-LY-3) was 210 ± 60 nM. For the same compound, the IC50 (OCI-LY-3) was 290 ± 70 nM, the GI50 (Toledo) was 70 ± 20 nM and the IC50 (Toledo) was 440 ± 20 nM. The GI50 (OCI-LY-10) was 140 ± 40 nM, the IC50 (OCI-LY-10) was 190 ± 40 nM and the GI50 (Farage) was 270 ± 30 nM. For the same compound, the IC50 (Farage) was 280 ± 40 nM, the GI50 (THP-1) was 230 ± 110 nM and the IC50 (THP-1) was 570 ± 160 nM. The GI50 (WSU-DLCL2) was 90 ± 20 nM, the IC50 (WSU-DLCL2) was 90 ± 20 nM and the GI50 (SU-DHL-16) was 110 ± 20 nM. For the same compound, the IC50 (SU-DHL-16) was 110 ± 20 nM, the GI50 (SU-DHL-10) was 200 ± 20 nM and the IC50 (SU-DHL-10) was 200 ± 30 nM. For the same compound, the GI50 (SU-DHL-4) was 110 ± 40 nM, the IC50 (SU-DHL-4) was 120 ± 50 nM and the GI50 (MOLM-13) was 110 ± 20 nM. For the same compound, the IC50 (MOLM-13) was 140 ± 20 nM, the GI50 (JVM-2) was 260 ± 50 nM and the IC50 (JVM-2) was 440 ± 180 nM. For the same compound, the GI50 (RC-K8) was 80 ± 10 nM, the IC50 (RC-K8) was 150 ± 30 nM and the GI50 (U-2932) was 300 ± 30 nM. For the same compound, the IC50 (U-2932) was 450 ± 10 nM, the GI50 (OCI-LY-7) was 190 ± 30 nM and the IC50 (OCI-LY-7) was 250 ± 30 nM.
